In patent US9981950B2, “Triazoles as NR2B receptor inhibitors” (Janssen Pharmaceuticals, Inc., priority 2014, dated 2018):
pIC50: −log10 of the molar value.

Key:
[1] = biological target: cloned human NR1/NR2B ion channels (Homo sapiens (Human), UniProt Q05586+Q13224); test: HNR2BC: calcium influx assay on cloned human NR1/NR2B ion channels expressed in HEK cells; type: cell-based; settings: HEK cells hNR1/NR2B, 100 μM glutamate + 100 μM glycine, 3 parameter plot
Method: HNR2BC: Effects of Test Articles on Cloned Human NR1/NR2B Ion Channels Expressed in Mammalian Cells
The ability of test compounds to act as an antagonist of NR1/NR2B were evaluated with a calcium influx assay (Calcium 5 Assay Kit, Molecular Devices).
For the antagonist assessment, NR1/NR2B was activated with the positive control agonist (Mg^2+-free HBPS+100 μM glutamic acid+100 μM glycine). The effect of each test article to inhibit the signal was examined after agonist stimulation and compared to the positive control antagonist (MK-801).
A HEK cell line, stable transfected with hNR1/NR2B was used. This tetracycline inducible cell line is transfected with GRIN1 (GeneBank accession number NM 007327.2) and GRIN2B (GeneBank accession number NM_000834.3.). The cells were cultured in cell culture flasks with DMEM/F12 supplemented with 10% FCS, 1% PenStrep and a selection of additional antibiotics.
Forty-Eight (48) hours before the assay the cells were plated into 96-well black well, flat clear bottom microtiter plates at a density of 50000 cells/well. Twenty-Four (24) hours later the receptor expression was induced by the addition of 1 μg/ml tetracycline in the presence of 2 mM ketamine and 200 μM 7-CKA. After 24 h of receptor induction the plates were used for the assay.
The medium was removed and the cells were loaded with 200 μl loading buffer (Molecular Devices) in Mg2+-free HBPS containing 100 μM 7-CKA at 37° C. for one (1) hour.
The test compounds were then solubilized in 100% DMSO and diluted to yield eight (8) different concentrations in 100% DMSO. A 96 well drug plate was prepared by diluting with water and glycine/glutamate to a 5-fold of final test concentration. Fluorescence intensity of the cells in the plate was measured in a FlexStation using an excitation wavelength of 485 nm and an emission wavelength of 525 nm. Twenty (20) seconds after starting the recordings the compounds together with the agonists glycine (100 μM) and glutamate (100 μM) were added into the wells and the fluorescence measured for ninety (90) seconds in summary.
The IC50 values provided in the paragraph below were determined using a 3 parameter plot.

rat NR1/NR2B receptor [2] = biological target: T1, rat NR1/NR2B receptor (Rattus norvegicus (Rat), UniProt P35439+Q00960); test: NR2B binding assay: inhibition of specific [3H]-Ifenprodil binding to the rat NR1/NR2B receptor; settings: rat brain membranes, Hill-plot 2-parameter-model
T1 sequence (Q00960 27-1482, other chains not shown): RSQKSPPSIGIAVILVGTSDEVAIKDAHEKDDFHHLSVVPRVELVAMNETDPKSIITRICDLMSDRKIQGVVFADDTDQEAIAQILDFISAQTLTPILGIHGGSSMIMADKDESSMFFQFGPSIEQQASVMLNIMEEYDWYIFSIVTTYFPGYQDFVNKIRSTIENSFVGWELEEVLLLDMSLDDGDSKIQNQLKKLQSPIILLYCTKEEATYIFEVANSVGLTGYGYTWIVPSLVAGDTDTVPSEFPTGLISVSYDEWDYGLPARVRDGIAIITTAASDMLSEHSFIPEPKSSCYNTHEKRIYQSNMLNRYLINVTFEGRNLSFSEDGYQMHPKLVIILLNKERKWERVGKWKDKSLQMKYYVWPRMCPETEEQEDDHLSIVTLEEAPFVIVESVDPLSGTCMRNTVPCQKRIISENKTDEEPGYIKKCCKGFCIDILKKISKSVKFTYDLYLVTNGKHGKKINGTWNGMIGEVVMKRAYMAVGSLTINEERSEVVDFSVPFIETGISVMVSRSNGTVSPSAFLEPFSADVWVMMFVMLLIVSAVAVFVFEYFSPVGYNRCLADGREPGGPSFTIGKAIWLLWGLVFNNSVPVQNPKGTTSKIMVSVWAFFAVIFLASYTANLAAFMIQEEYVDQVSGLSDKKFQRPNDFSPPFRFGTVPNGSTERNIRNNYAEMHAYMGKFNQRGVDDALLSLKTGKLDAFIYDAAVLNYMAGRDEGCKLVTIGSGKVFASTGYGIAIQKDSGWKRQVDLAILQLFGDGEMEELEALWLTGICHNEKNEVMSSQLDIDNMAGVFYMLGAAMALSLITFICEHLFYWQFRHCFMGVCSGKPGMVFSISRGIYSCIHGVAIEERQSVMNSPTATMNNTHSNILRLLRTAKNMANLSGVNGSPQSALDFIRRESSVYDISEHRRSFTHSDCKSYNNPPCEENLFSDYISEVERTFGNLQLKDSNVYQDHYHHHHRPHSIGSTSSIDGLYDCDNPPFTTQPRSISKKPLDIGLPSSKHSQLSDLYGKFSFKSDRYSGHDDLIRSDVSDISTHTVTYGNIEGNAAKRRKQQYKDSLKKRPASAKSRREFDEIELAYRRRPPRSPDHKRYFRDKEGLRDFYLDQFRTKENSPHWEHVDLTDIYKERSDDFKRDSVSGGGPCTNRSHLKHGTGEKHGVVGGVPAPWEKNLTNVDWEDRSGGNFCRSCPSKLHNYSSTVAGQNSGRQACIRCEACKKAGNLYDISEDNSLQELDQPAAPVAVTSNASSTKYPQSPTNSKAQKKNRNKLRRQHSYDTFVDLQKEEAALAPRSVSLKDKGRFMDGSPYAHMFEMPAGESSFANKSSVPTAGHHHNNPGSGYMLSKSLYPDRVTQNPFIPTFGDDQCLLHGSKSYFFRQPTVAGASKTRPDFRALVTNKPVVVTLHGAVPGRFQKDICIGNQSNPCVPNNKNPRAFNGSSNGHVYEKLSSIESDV
How it was run: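 Binding ran 60 min at 4 °C on washed membranes from male Wistar rat brain without cerebellum, in 5 mM Tris/1 mM EDTA, pH 7.4, and was ended by filtration through polyethylene-imine-presoaked filters. […] CP101.606 defined nonspecific binding.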

rat NR1/NR2B receptor [3] = biological target: T1, rat NR1/NR2B receptor; test: RRNR2BB: inhibition of specific binding to the rat NR1/NR2B receptor; settings: [3H]-Ifenprodil binding, rat brain membranes, Hill-plot 2-parameter-model
How it was run: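 Washed membranes from male Wistar rat forebrain (whole brain minus cerebellum) in 5 mM Tris/1 mM EDTA pH 7.4 used in ifenprodil-site binding, 60 min at 4° C. Nonspecific binding defined with […] CP101.606; bound separated by filtration on PEI-soaked filters. IC50 from Hill plot, 2-parameter model.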

Chain of cloned human NR1/NR2B ion channels (Q13224 27-1484, other chains not shown): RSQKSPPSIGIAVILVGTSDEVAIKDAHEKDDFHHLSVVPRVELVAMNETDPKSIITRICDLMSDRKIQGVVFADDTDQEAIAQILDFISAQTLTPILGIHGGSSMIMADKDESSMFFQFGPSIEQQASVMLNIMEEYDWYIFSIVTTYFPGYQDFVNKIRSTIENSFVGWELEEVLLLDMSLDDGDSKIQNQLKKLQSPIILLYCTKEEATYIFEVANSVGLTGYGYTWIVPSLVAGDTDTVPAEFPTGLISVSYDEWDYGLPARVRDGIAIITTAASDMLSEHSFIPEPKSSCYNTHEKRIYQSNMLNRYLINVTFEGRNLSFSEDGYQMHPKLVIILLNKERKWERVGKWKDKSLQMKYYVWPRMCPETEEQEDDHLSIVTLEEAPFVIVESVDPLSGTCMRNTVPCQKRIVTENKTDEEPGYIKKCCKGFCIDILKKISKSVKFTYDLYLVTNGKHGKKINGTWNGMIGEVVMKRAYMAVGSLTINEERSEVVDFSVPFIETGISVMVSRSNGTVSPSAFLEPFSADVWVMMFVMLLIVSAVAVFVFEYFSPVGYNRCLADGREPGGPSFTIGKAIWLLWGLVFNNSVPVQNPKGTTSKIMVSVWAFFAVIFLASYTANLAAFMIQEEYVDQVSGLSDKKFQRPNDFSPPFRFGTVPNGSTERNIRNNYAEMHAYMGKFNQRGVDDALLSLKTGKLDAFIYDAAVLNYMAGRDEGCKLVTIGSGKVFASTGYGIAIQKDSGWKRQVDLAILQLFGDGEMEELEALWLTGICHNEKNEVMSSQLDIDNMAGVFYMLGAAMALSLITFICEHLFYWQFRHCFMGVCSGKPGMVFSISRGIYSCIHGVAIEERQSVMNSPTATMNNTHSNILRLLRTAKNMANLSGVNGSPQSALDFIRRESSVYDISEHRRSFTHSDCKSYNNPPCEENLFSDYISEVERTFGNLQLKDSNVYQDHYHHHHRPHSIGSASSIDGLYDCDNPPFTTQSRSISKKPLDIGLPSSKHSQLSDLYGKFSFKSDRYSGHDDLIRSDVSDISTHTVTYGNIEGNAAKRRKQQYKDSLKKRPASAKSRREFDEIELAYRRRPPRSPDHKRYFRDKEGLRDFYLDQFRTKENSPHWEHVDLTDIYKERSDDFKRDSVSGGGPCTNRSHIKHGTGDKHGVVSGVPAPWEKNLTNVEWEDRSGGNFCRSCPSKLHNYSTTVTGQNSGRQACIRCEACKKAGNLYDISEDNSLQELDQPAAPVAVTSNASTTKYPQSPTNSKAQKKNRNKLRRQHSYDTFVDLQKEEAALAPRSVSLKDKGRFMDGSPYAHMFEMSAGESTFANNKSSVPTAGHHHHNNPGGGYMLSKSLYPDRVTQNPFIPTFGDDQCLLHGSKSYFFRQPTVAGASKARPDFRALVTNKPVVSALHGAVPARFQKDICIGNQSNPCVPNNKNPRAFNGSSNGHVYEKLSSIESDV

Row | SMILES | pIC50 [1] | pIC50 (rat NR1/NR2B receptor [2]) | pIC50 (rat NR1/NR2B receptor [3])
1 | OCCc1nccn1Cc1cn(-c2ccc(F)c(OC(F)F)c2)nn1 [Example 101, 1-(3-Difluoromethoxy-4-fluoro-phenyl)-4-[2-(2-hydroxy-ethyl)-imidazol-1-ylmethyl]-1H-[1,2,3]triazole] | 5.78 | 8.37 | 8.37
2 | Cn1nccc1Cc1cn(-c2ccc(F)c(Cl)c2)nn1 [Example 109, 1-(3-Chloro-4-fluoro-phenyl)-4-(2-methyl-2H-pyrazol-3-ylmethyl)-1H-[1,2,3]triazole] | 3.96 | 5.36 | 5.36
3 | Fc1ccc(-n2cc(Cn3ccnc3C3CC3)nn2)cc1C(F)F [Example 82, 4-(2-Cyclopropyl-imidazol-1-ylmethyl)-1-(3-difluoromethyl-4-fluoro-phenyl)-1H-[1,2,3]triazole] | 5.31 | 7.79 | 7.79
4 | CC(C)c1nccn1Cc1cn(-c2ccc(F)c(C(F)F)c2)nn1 [Example 84, 1-(3-Difluoromethyl-4-fluoro-phenyl)-4-(2-isopropyl-imidazol-1-ylmethyl)-1H-[1,2,3]triazole] | 5.38 | 7.96 | 7.96

Continued, values first:

Row | pIC50 [1] | pIC50 (rat NR1/NR2B receptor [2]) | pIC50 (rat NR1/NR2B receptor [3]) | SMILES
5 | 5.42 | 8.42 | 8.42 | Cc1nccn1Cc1cn(-c2ccc(F)c(C(F)F)c2)nn1 [Example 81, 1-(3-Difluoromethyl-4-fluoro-1-phenyl)-4-(2-methyl-imidazol-1-ylmethyl)-1H-[1,2,3]triazole]
6 | 6.18 | 9.32 | 9.32 | Nc1nccn1Cc1cn(-c2ccc(F)c(C(F)F)c2)nn1 [Example 113B, 4-(2-amino-imidazol-1-ylmethyl)-1-(4-fluoro-3-difluoromethyl-phenyl)-1H-[1,2,3]triazole]
7 | 6.39 | 8.92 | 8.92 | Cc1nccn1Cc1cn(-c2ccc(Cl)c(OC(F)F)c2)nn1 [Example 93, 1-(4-Chloro-3-difluoromethoxy-phenyl)-4-(2-methyl-imidazol-1-ylmethyl)-1H-[1,2,3]triazole]
8 | 4.76 | 7.11 | 7.11 | CC(C)c1nccn1Cc1cn(-c2ccc(Cl)cc2)nn1 [Example 23, 1-(4-Chloro-phenyl)-4-(2-isopropyl-imidazol-1-ylmethyl)-1H-[1,2,3]triazole]
9 | 6.08 | 9.19 | 9.19 | Nc1nccn1Cc1cn(-c2ccc(Cl)c(C(F)F)c2)nn1 [Example 113A, 4-(2-amino-imidazol-1-ylmethyl)-1-(4-chloro-3-difluoromethyl-phenyl)-1H-[1,2,3]triazole]
10 | 5.63 | 9.29 | 9.29 | CC(F)(F)c1cc(-n2cc(Cn3ccnc3N)nn2)ccc1F [Example 114]
